Measurements: EP0377127B1, “Use of Myricetin-3-O-beta-D glucuronide as medicament” (Plantamed Arzneimittel GmbH, priority 1989, dated 1990)
Where two headings read alike, the source gives them in different places.

What was measured:
[1] = tested on: Carrageenin-induzierte Rattenpfotenödem; test: Carrageenin-induced rat paw oedema (acute inflammation model); assay type: in vivo, Ratte
Procedure: Zur Prüfung der entzündungshemmenden Wirkung dieser Substanz wird das Modell des Carrageenin-induzierten Rattenpfotenödems herangezogen, ein allgemein anerkanntes Modell zur Ermittlung anhand einer akuten Entzündung. Die entzündungshemmende Wirkung von vakuumgetrockneten und lyophilisierten Extrakten ist in Abb. 1 wiedergegeben. Bei der Anwendung von vakuumgetrocknetem Blattextrakt von Epilobium angustifolium wurde eine Dosis von 72 mg/kg Ratte, für sprühgetrockneten Blattextrakt eine Dosis von 136,47 mg/kg Ratte und für lyophilisierten Blattextrakt eine Dosis von 16,4 mg/kg Ratte eingesetzt. Das Ausmaß der entzündungswirkenden von vakuumgetrockneten und lyophilisierten Extrakten der in Abbildung 1 aufgezeigten Konzentrationen entspricht ca. 1 bis 2 mg Indometacin/kg Ratte.
Der Einfluß auf das Carrageenin-induzierte Rattenpfotenödem geht aus den Kurven in den Abbildungen 2 und 3 hervor. Abbildung 2 stellt unterschiedliche Dosen von HIMAK einander gegenüber, Abb. 3 dient dem Vergleich von HIMAK einer bestimmten Dosis mit einem wässrigen Auszug von Epilobium und Indometacin. Der Darstellung des Einflusses der erfindungsgemäßen Substanz auf die Prostaglandin-Biosynthese am pharmakologischen Modell nach ISAKSON, modifiziert nach JUAN und SAMETZ am perfundierten Kaninchenohr sowie mittels Radioimmunoassay (RIA) dienen die Abbildungen 4 und 5.

Magenschleimhaut = test: Preliminary examination of gastric mucosa damage after peroral dosing; assay type: in vivo; settings: 1 mg/kg, preliminary examinations
Excerpt: Es ist gesicherte Erkenntnis, daß Cyclooxygenase-Hemmer, also Hemmer der Biosynthese von Prostaglandinen, wie etwa Indo, die Magenschleimhaut schädigen können. […] Im Ergebnis liefern diese Untersuchungen einen Hinweis auf die wesentlich günstiger zu beurteilende Frage der Toxizität von HIMAK.

PG-Biosynthese = test: Prostaglandin biosynthesis in the perfused rabbit ear (labelled arachidonic acid, metabolites separated by TLC; RIA); assay type: cell-based, Kaninchen; settings: for inhibition at 1 µg/mL: Oryctolagus cuniculus, read-out: hemmen die Biosynthese von PGI₂ und PGE₂
Excerpt: Methode: Perfundiertes Kaninchenohr mit C-Arachidonsäure, Vormarkierung und Messung der radioaktiven Metalboliten mittels Auftrennung durch DC. • 2.

| Structure (SMILES) | Dosisbereich, der das Carrageenin-Pfotenödem ähnlich stark reduziert wie 1 mg/kg Indomethacin (p.o.) ([1]; compared with 1 mg/kg Indomethacin p.o.) | Hemmung der experimentellen akuten Entzündung (Rattenpfotenödem mit Carrageenin) (in words) ([1]; dose-dependent) | Wirksamkeit im Vergleich mit der Referenzsubstanz Indo auf Gewichtsbasis (in words) ([1]; first experiments, weight basis) | so wirksam wie Indo, auf geschätzter Molekulargewichtsbasis ([1]; potency relative to Indo, estimated molecular weight basis) [mal] | so wirksam wie Indo, auf Gewichtsbasis ([1]; potency relative to Indo, weight basis) [mal] | Bildung kleiner Erosionen in der Magenschleimhaut (Magenschleimhaut) | inhibition at 1 µg/mL (PG-Biosynthese; 1 »g/ml (Endkonzentration) Indo, ca. 1 »g/ml HIMAK, perfused rabbit ear) [%] | Hemmung der Biosynthese von Prostaglandinen (in words) (PG-Biosynthese; dose-dependent) | Hemmung der PG-Biosynthese im Vergleich mit Indo (in words) (PG-Biosynthese; weight basis, similar concentration as Indo (Abb. 4)) | inhibition at 1 µg/mL (PG-Biosynthese) [%] |
| --- | --- | --- | --- | --- | --- | --- | --- | --- | --- | --- |
| O=C(O)[C@H]1O[C@@H](Oc2c(-c3cc(O)c(O)c(O)c3)oc3cc(O)cc(O)c3c2=O)[C@H](O)[C@@H](O)[C@@H]1O [HIMAK, Myricetin-3-0-β-D-glucuronid] | 40 - 200 »g/kg KG | deutlich hemmen | wesentlich wirksamer | ~5 | ≥ 10 | nicht der Fall | > 80 | deutlich hemmen | in etwa gleichem Ausmaß gehemmt | – |
| COc1ccc2c(c1)c(CC(=O)O)c(C)n2C(=O)c1ccc(Cl)cc1 [Indo, Indometacin, reference compound] | – | – | – | – | – | Bildung kleiner Erosionen in der Magenschleimhaut | – | – | – | > 80 |
